Data on 13 molecules can be found in ChEMBL document CHEMBL5465560, “Selectivity Literature for EUbOPEN Chemogenomic Library” (2024).

One series deals with PXR (NR1I2) (Homo sapiens, UniProt O75469). The experiment in a line: Selectivity interaction (Panel of kinases, GPCRs, ion channels and transporters (enzymatic assay)) EUB0000266bCl NR1I2.
Series [1] has as its target T1, Serine/threonine-protein kinase BRSK1 (Homo sapiens) (UniProt Q8TDC3).
T1 sequence (whole entry): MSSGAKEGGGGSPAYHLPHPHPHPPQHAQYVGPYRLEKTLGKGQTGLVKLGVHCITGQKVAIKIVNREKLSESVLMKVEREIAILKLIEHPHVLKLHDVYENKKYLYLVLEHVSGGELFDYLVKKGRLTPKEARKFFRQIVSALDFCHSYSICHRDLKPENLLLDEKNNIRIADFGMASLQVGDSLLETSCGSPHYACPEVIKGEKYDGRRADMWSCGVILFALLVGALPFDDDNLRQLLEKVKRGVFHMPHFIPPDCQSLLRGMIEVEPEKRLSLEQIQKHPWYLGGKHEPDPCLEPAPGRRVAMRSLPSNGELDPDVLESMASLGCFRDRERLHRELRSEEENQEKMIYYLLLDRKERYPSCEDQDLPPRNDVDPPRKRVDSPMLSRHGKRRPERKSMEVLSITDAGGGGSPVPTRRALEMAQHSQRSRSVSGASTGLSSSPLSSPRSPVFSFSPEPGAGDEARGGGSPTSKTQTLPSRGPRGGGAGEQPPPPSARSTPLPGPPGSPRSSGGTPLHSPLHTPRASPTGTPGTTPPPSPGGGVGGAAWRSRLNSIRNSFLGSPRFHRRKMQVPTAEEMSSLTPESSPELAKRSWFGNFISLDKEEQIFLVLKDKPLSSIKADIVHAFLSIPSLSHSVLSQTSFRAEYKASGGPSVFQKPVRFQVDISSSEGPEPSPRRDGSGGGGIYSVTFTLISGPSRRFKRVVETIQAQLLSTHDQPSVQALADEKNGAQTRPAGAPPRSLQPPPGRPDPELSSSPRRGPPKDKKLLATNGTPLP
As to the kind of experiment: Selectivity interaction (ProQinase) EUB0000171b BRSK1.

Series [2] addresses Serine/threonine-protein kinase MRCK gamma (Homo sapiens) (UniProt Q6DT37). The experiment in a line: Selectivity interaction (Ambit KINOMEscan and KiNATiv profiling in Jurkat cells) EUB0000090b CDC42BPG. The class given is cell-based. Conditions: at 1 µM.
The target in series [3] is Ribosomal protein S6 kinase alpha-6 (Homo sapiens, UniProt Q9UK32). As to conditions: at 10 µM.
Chain of Ribosomal protein S6 kinase alpha-6 (Q9UK32 whole entry): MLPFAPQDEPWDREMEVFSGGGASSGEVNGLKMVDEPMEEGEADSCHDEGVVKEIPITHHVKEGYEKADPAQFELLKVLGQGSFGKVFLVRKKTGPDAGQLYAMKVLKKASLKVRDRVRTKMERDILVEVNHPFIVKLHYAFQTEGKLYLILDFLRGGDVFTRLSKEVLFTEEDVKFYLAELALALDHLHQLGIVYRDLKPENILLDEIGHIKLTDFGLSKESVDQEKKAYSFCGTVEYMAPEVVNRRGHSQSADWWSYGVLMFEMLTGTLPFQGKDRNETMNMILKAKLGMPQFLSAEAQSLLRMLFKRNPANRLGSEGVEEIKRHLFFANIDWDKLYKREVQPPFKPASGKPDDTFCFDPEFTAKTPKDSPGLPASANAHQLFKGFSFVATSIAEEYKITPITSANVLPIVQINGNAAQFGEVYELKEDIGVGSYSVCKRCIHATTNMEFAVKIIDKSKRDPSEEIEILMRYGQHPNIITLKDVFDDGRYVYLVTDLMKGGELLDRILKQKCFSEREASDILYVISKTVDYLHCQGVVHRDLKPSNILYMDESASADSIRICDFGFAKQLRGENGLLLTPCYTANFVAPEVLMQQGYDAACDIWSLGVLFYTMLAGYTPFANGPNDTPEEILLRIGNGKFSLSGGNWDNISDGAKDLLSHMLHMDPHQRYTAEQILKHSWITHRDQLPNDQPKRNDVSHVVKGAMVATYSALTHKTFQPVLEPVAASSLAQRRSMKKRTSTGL
The target of a further series is D(1A) dopamine receptor (Homo sapiens, UniProt P21728). The experiment in a line: Selectivity interaction (GPCR panel (PDSP screen)) EUB0001079a DRD1. As to conditions: at 10 µM.
Series [4] deals with Serine/threonine-protein kinase PLK3 (Homo sapiens, UniProt Q9H4B4). As to the kind of experiment: Selectivity interaction (KinomeScan (DiscoverX)) EUB0000092b PLK3. Conditions: at 10 µM.
Series [5] concerns the target Mitogen-activated protein kinase 11 (Homo sapiens) (UniProt Q15759). The experiment in a line: Selectivity interaction (KinomeScan (DiscoverX)) EUB0000655a MAPK11. Conditions: at 10 µM.
Series [6] addresses Serine/threonine-protein kinase SIK1 (Homo sapiens) (UniProt P57059). As to the kind of experiment: Selectivity interaction (KinomeScan (DiscoverX)) EUB0000695a SIK1. As to conditions: at 100 nM.
Series [7] concerns the target Tyrosine-protein kinase Fer (Homo sapiens) (UniProt P16591). The experiment in a line: Selectivity interaction (KinomeScan (DiscoverX)) EUB0000695a FER. As to conditions: at 100 nM.
The target of series [8] is Mitogen-activated protein kinase kinase kinase kinase 4 (Homo sapiens, UniProt O95819). The experiment in a line: Selectivity interaction (KinomeScan (DiscoverX)) EUB0000045b MAP4K4.
Chain of Mitogen-activated protein kinase kinase kinase kinase 4 (O95819 2-1239 limits assumed): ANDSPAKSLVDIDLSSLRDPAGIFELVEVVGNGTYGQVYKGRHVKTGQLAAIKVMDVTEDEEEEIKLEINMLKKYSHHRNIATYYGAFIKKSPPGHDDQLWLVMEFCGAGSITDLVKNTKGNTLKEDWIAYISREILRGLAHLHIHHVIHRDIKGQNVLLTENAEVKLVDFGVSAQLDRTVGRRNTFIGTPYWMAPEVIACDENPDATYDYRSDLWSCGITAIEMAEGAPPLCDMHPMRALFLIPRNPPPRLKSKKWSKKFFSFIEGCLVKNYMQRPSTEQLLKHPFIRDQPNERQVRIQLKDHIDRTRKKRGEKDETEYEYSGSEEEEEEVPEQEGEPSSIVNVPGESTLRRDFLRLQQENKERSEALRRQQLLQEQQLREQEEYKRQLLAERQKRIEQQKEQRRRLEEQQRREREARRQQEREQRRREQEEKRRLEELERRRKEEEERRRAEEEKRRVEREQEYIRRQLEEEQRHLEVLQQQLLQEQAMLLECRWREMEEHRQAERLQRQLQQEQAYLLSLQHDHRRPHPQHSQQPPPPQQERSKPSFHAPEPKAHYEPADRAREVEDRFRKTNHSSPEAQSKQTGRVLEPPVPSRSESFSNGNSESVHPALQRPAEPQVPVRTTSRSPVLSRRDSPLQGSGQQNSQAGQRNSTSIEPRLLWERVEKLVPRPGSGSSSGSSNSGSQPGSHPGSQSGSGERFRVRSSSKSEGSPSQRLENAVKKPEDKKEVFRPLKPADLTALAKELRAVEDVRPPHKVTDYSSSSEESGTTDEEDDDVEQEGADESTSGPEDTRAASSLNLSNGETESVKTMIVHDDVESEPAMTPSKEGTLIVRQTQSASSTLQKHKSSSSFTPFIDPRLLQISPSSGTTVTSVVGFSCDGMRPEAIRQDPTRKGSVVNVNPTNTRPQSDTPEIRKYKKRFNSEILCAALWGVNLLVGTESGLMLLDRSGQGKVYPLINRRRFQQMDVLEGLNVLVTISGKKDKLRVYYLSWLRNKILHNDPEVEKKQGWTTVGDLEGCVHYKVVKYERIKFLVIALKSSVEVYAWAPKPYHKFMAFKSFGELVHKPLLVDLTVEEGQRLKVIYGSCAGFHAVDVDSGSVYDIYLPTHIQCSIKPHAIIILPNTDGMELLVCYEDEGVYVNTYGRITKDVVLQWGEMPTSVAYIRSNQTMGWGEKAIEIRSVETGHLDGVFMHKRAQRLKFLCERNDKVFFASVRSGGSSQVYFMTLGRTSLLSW
In series [9] the target is Serine/threonine-protein kinase SIK1 (Homo sapiens) (UniProt P57059). As to the kind of experiment: Selectivity interaction (KinomeScan (DiscoverX)) EUB0000045b SIK1.
Chain of Serine/threonine-protein kinase SIK1 (Homo sapiens) (P57059 whole entry): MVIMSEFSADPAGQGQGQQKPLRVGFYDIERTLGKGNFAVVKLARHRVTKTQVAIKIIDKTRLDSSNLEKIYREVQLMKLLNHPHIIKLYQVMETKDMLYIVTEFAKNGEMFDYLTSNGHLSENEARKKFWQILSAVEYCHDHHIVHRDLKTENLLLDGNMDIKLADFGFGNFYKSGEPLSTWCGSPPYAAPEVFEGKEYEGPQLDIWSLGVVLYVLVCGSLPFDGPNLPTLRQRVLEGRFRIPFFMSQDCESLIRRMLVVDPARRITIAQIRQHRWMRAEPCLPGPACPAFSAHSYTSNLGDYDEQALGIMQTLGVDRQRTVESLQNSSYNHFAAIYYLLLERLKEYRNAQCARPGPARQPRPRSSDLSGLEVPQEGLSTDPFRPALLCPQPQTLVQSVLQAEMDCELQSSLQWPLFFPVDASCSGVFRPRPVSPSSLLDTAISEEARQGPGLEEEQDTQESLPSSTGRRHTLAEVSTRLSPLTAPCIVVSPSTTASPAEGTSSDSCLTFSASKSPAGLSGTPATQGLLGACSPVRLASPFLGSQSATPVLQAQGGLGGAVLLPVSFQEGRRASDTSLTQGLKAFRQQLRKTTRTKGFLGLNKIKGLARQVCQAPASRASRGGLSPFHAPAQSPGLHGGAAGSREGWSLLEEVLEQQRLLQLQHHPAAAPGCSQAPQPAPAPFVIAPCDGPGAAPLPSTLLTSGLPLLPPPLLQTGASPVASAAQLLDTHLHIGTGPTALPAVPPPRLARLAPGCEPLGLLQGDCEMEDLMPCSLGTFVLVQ
The target of series [10] is T2, Myotonin-protein kinase (Homo sapiens) (UniProt Q09013).
T2 sequence (whole entry): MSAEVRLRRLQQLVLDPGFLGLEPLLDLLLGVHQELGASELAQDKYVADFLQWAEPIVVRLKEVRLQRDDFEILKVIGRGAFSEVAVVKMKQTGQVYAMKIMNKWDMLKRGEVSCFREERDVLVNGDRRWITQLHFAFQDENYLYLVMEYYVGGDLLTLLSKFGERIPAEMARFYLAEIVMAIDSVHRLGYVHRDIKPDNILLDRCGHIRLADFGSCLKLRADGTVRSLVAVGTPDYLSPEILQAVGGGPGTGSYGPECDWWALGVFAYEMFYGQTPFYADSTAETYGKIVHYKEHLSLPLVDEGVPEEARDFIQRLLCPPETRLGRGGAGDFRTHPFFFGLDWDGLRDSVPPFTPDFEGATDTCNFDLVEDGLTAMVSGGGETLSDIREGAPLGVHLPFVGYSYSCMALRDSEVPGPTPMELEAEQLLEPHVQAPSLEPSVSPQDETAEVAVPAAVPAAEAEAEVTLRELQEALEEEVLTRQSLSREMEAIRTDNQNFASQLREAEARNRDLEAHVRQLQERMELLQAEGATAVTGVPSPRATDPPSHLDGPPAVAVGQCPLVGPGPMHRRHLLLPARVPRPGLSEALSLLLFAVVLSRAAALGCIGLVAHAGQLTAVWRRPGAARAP
As to the kind of experiment: Selectivity interaction (LanthaScreen Eu Kinase Binding Assay) EUB0001632a DMPK. As to conditions: at 10 µM. (In general: In TR-FRET formats the signal depends on donor and acceptor labels being close together.)

For series [11], the target named is T2, Myotonin-protein kinase (Homo sapiens). The experiment in a line: Selectivity interaction (Kinase panel (Invitrogen)) EUB0000639a DMPK. As to conditions: at 200 nM.
Series [12] addresses Mitogen-activated protein kinase kinase kinase 11 (Homo sapiens) (UniProt Q16584). The experiment in a line: Selectivity interaction (KinomeScan (DiscoverX)) EUB0000229b MAP3K11. As to conditions: at 10 µM.
The target in series [13] is Mitogen-activated protein kinase kinase kinase kinase 5 (Homo sapiens) (UniProt Q9Y4K4). As to the kind of experiment: Selectivity interaction (ActivX KiNativ screen (ex vivo kinase selectivity in human PBMCs)) EUB0001619a MAP4K5. In kind it is cell-based. Conditions: PBMC, at 1 µM.

Chain of Serine/threonine-protein kinase MRCK gamma (Homo sapiens) (Q6DT37 whole entry): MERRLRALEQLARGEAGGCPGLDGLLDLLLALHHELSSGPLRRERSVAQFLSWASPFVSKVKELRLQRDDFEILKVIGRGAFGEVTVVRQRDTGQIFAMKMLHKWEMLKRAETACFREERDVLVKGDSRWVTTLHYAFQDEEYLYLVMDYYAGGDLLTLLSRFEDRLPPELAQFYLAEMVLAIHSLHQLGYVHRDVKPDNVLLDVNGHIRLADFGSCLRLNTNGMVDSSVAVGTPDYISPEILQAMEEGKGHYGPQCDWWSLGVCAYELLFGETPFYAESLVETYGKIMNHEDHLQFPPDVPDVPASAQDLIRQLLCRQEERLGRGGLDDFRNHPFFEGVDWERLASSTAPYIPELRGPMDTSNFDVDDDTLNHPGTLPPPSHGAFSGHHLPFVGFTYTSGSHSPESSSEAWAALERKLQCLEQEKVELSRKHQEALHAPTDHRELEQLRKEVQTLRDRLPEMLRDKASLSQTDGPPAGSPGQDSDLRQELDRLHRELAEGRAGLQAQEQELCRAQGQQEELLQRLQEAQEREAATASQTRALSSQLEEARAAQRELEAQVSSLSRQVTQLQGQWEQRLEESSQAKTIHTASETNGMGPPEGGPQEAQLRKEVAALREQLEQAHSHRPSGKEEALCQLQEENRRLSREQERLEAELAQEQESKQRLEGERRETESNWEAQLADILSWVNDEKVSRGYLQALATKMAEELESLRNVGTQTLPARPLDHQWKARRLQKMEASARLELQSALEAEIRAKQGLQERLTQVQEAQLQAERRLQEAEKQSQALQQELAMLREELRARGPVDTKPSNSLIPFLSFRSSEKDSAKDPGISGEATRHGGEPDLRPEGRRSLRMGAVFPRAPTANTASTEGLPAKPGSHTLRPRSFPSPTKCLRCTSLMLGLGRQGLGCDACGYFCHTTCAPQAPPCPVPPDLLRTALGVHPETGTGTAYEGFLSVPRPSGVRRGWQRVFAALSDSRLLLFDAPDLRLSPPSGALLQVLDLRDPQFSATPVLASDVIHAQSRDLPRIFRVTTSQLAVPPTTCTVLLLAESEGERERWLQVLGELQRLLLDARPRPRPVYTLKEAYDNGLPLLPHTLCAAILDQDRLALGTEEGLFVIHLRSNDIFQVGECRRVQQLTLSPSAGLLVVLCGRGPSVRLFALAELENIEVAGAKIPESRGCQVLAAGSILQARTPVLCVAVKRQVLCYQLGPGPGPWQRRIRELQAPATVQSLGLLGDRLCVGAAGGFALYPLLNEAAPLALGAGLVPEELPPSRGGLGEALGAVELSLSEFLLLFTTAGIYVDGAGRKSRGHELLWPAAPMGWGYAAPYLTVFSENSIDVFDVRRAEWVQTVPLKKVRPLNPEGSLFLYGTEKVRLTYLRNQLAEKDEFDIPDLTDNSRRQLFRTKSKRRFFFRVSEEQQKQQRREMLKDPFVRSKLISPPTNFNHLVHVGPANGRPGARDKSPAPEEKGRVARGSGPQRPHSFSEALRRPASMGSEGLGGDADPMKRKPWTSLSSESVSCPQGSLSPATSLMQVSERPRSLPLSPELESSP
Chain of Mitogen-activated protein kinase 11 (Homo sapiens) (Q15759 whole entry): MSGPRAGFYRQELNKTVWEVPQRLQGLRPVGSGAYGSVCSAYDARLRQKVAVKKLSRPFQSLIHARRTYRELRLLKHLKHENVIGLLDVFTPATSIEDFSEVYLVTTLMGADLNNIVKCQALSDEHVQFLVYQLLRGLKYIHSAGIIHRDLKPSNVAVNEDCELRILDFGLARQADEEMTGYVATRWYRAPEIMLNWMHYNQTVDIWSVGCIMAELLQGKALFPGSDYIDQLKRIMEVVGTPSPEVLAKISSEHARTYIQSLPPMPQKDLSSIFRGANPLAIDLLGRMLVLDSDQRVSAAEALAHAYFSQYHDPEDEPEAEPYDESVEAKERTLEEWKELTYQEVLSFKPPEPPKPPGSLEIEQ

In turn, `CCn1c(-c2nc3cc(C(=O)N4CCCC(N)C4)ccc3n2C)cc2ccccc21` (stereo not drawn) gave an XC50 at PXR (NR1I2) greater than 50.1 µM.
As for `C=CC(=O)Nc1cccc(C(=O)Nc2ccc(Nc3cc(-c4[nH]c(SC)nc4C)ccn3)cc2)c1`, the % of control was found to be 107% in [1] (at 1 µM) and 95% in series [1] (at 5 µM).
For `CN(C)C/C=C/C(=O)Nc1ccc(C(=O)N2CCCC(Nc3ncc(Cl)c(-c4c[nH]c5ccccc45)n3)C2)cc1` (stereo not drawn), in [2], the % of control was 90%.
As to `CCN(CC)CCCCNc1ncc2cc(-c3cc(OC)cc(OC)c3)c(NC(=O)NC(C)(C)C)nc2n1`, the % of control in [3] was 100%.
As to `Nc1cnc(N2CCc3cc(S(=O)(=O)Nc4c(F)cc(Cl)cc4F)cc(N4CCCC4=O)c32)nc1` [TP-020n], the % of inhibition at D(1A) dopamine receptor is -8.35%.
In series [4], `CCC(=O)N1CCN(c2ccc(-n3c(=O)ccc4cnc5ccc(-c6cnc7ccccc7c6)cc5c43)cc2C(F)(F)F)CC1` showed a % of control of 87%.
With `CN(C)CCOc1ccc(-c2nc(-c3ccncc3)c(-c3ccc4c(c3)CC/C4=N\O)[nH]2)cc1`, in series [5], the % of control turned out to be 91%.
For the molecule `Cc1cc(F)c(C(=O)Nc2cccc(-c3nncn3C(C)C)n2)cc1-n1cnc(C2CC2)c1`, the values for the % of control in [6] and in series [7] were 94% and 72%, respectively.
`C=CC(=O)Nc1cc(-n2c(=O)ccc3cnc4ccc(-c5ccc(NS(C)(=O)=O)cc5)cc4c32)ccc1C`: the % of control in [8] (at 1 µM) came to 100%; in [8] (at 10 µM), 100%; in series [9] (at 1 µM) it was 100%; in series [9] (at 10 µM) it was 69%.
For the molecule `Cn1cc(-n2cnc3c(NCc4nc5cc(Cl)c(Cl)cc5[nH]4)nc(N4CCOCC4)nc32)cn1`, the % of inhibition in series [10] is -4.81%.
Take `CC[C@@H]1[C@H](F)C(=O)N[C@@H]1COc1nccc2cc(C(N)=O)c(OC)cc12` [ZIMLOVISERTIB]: the % of inhibition in [11] is -0.603%.
`COc1cc(N(C)c2ccnc3ccc(C(F)(F)F)cc23)cc(OC)c1OC` came in with a % binding in series [12] of 92%.
As to `N#Cc1cccc(-c2c[nH]c3ncnc(N4CCOCC4)c23)c1`, the % of inhibition in [13] is 13%.
